Laboratory results as given in patent publication EP0750903A1, “Deodorant composition” (Coöperatie Cosun U.A., priority 1995, dated 1997).

Key:
Test in all cases: plate method, inhibition of growth on TSBA medium
Assay type in all cases: cell-based
Settings in all cases: Table C; 1:50 dilution of an overnight culture; ester conc 400 ug/ml
[1] = test system: Micrococcus luteus ATCC 533
Procedure: (§1) The tests reproduced below have been carried out on the basis of four strains which occur in the human armpit flora, viz. Micrococcus luteus ATCC 533, Staphylococcus epidermis ATCC 155, Corynebacterium xerosis ATCC 373 and Corynebacterium minutissimum ATCC 23348 (ATCC = American Type Culture Collection, Maryland 20852, USA).
(§2) The Micrococcus luteus strain has been incubated at 30°C and the other three strains at 37°C. All strains have been tested for purity and then frozen in glycerol in liquid nitrogen. In addition, the strains have been kept on plate (TSBA medium; TSBA = trypton soya broth (medium CM 129 of Oxoid Ltd. + 1% agar), and regularly re-inoculated (at least once a week).
(§3) The abovementioned sucrose-fatty acid esters have been used in concentrations of 400-800-1600-3200-6400 mg/l.
(§4) The plate method was made use of as test method. In this method, the medium was prepared in sucrose-fatty acid solutions in the above concentrations. The plate, which was provided with a TSBA medium (see above), was then inoculated with 100 µl of culture and incubated at the desired temperature (see above). In this connection, use was made of overnight cultures in TSB (= trypton soya broth) which have been inoculated in undiluted and diluted form.
(§5) The inhibition obtained in the test method of the growth of the respective strains is shown with the values 0 (no inhibition) and with 1, 2, 3, 4 or 5 plus signs, where + 0 - 20% inhibition ++ 20 - 40% inhibition +++ 40 - 60% inhibition ++++ 60 - 80% inhibition +++++ 80 - 100% inhibition.
(§6) A blank determination without sucrose-fatty acid solution on TSBA was used as a control (pos. cont. TSBA; see Tables A and B in Examples I and II).

[2] = test system: Staphylococcus epidermis ATCC 155
Procedure: as §1, §2, §3, §4, §5, §6

[3] = test system: Corynebacterium minutissimum ATCC 23348
Procedure: as §1, §2, §3, §4, §5, §6

[4] = test system: Corynebacterium xerosis ATCC 373
Procedure: as §1, §2, §3, §4, §5, §6

| Substance | inhibition of the growth, M.luteus [1] | inhibition of the growth, S.epidermis [2] | inhibition of the growth, C.minutissimum [3] | inhibition of the growth, C.xerosis [4] |
| --- | --- | --- | --- | --- |
| lactitol stearate | +++++ (+++++ 80 - 100% inhibition) | 0 (0 (no inhibition)) | +++++ (+++++ 80 - 100% inhibition) | +++++ (+++++ 80 - 100% inhibition) |
| sorbitol stearate | 0 (0 (no inhibition)) | 0 (0 (no inhibition)) | +++++ (+++++ 80 - 100% inhibition) | 0 (0 (no inhibition)) |
| sucrose behenate | 0 (0 (no inhibition)) | 0 (0 (no inhibition)) | +++++ (+++++ 80 - 100% inhibition) | +++ (+++ 40 - 60% inhibition) |
| sucrose hydroxystearate | +++ (+++ 40 - 60% inhibition) | 0 (0 (no inhibition)) | +++++ (+++++ 80 - 100% inhibition) | +++++ (+++++ 80 - 100% inhibition) |
| sucrose isostearate | + (+ 0 - 20% inhibition) | 0 (0 (no inhibition)) | +++++ (+++++ 80 - 100% inhibition) | +++++ (+++++ 80 - 100% inhibition) |
| sucrose oleate | +++ (+++ 40 - 60% inhibition) | 0 (0 (no inhibition)) | +++++ (+++++ 80 - 100% inhibition) | +++++ (+++++ 80 - 100% inhibition) |
